Test results: patent US20150307520A1, “NOVEL HETEROARYL AND HETEROCYCLE COMPOUNDS, COMPOSITIONS AND METHODS THEREOF” (HUTCHISON MEDIPHARMA LIMITED, priority 2012, published 2015)

Legend:
Format in all cases: biochemical
p110δ/p85α = p110δ/p85α (Homo sapiens, UniProt O00329); experiment: Transcreener KINASE Assay, kinase inhibition of p110δ/p85α; conditions: for PI3Kδ IH % @ 1 uM: 1 uM test compound; for IC50: read-out: PI3Kδ IC50
Protocol: (§1) PI3K kinases including p110α/p85α, p110δ/p85α and p110γ are purchased from Invitrogen, and p110β/p85α is from Millipore.
(§2) Primary screening data and IC50 values are measured using Transcreener™ KINASE Assay (Bellbrook, Catalog #3003-10K). […] It is a universal, homogenous, high throughput screening (HTS) technology using a far-red, competitive fluorescence polarization immunoassay based on the detection of ADP to monitor the activity of enzymes that catalyze group transfer reactions. Briefly, the Transcreener KINASE Assay is designed as a simple two-part, endpoint assay.
(§3) In the first step, the 25 ul kinase reaction is performed by preparing a reaction mixture containing 5 ul test compound (2% DMSO final concentration), 10 ul kinase, buffer (50 mM HEPES, 100 mM NaCl, 1 mM EGTA, 0.03% CHAPS, 3 mM MgCl2, and freshly supplemented 1 mM DTT), and 10 ul 30 uM PIP2/10 uM ATP. The plate is sealed and incubated for 80 min at room temperature. Next, 25 ul ADP detection mix is added per well. The plate is sealed again and incubated for 60 min at room temperature, and then measure fluorescence polarization by Tecan Infinite F500 Reader.
(§4) Data is analyzed and IC50s are generated using the add-in software for Microsoft Excel, Xlfit™ (version 2.0). IH %=(ADP amount under 2% DMSO-ADP amount under test compound)/ADP amount under 2% DMSO.

p110γ = p110γ (Homo sapiens, UniProt P48736); experiment: Transcreener KINASE Assay, kinase inhibition of p110γ; conditions: for PI3Kγ IH % @ 1 uM: 1 uM test compound; for IC50: read-out: PI3Kγ IC50
Sequence of p110γ (P48736 whole entry): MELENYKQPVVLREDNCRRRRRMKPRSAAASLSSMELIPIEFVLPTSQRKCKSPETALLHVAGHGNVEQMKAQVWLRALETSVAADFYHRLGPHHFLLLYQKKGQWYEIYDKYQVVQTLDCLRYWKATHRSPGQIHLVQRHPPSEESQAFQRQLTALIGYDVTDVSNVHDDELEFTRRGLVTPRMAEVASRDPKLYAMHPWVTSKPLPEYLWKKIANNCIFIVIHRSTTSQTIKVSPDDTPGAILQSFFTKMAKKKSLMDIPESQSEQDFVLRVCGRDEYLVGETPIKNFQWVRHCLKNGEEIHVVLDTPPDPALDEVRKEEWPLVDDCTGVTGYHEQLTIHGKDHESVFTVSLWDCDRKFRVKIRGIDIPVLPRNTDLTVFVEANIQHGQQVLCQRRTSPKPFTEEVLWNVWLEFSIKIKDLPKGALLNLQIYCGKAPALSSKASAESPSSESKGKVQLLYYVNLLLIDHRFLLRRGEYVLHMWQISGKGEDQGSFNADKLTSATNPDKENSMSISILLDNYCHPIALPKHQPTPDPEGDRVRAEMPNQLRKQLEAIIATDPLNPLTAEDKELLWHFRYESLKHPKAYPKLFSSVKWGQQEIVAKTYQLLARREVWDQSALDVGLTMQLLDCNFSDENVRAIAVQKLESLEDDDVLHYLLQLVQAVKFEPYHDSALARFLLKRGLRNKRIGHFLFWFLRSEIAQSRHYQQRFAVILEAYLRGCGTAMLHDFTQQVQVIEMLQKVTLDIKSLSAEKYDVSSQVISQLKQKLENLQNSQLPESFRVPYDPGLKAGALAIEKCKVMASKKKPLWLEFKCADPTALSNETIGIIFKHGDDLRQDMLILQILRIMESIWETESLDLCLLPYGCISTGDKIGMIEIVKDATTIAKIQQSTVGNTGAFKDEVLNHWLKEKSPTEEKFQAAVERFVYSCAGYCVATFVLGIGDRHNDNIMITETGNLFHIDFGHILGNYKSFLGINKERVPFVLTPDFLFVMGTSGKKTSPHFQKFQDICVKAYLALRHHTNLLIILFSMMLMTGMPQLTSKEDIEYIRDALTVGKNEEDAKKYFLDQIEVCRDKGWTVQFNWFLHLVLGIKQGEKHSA
Protocol: Kinase Inhibition assays of p110α/p85α, p110β/p85α, p110δ/p85α and p110γ PI3K kinases including p110α/p85α, p110δ/p85α and p110γ are purchased from Invitrogen, and p110β/p85α is from Millipore. Primary screening data and IC50 values are measured using Transcreener™ KINASE Assay (Bellbrook, Catalog #3003-10K). […] It is a universal, homogenous, high throughput screening (HTS) technology using a far-red, competitive fluorescence polarization immunoassay based on the detection of ADP to monitor the activity of enzymes that catalyze group transfer reactions. Briefly, the Transcreener KINASE Assay is designed as a simple two-part, endpoint assay. […] The plate is sealed and incubated for 80 min at room temperature. Next, 25 ul ADP detection mix is added per well. The plate is sealed again and incubated for 60 min at room temperature, and then measure fluorescence polarization by Tecan Infinite F500 Reader. Data is analyzed and IC50s are generated using the add-in software for Microsoft Excel, Xlfit™ (version 2.0).

p110β/p85α = p110β/p85α (Homo sapiens, UniProt P42338); experiment: Transcreener KINASE Assay, kinase inhibition of p110β/p85α; conditions: for PI3Kβ IH % @ 1 uM: 1 uM test compound; for IC50: read-out: PI3Kβ IC50
Sequence of p110β/p85α (P42338 whole entry): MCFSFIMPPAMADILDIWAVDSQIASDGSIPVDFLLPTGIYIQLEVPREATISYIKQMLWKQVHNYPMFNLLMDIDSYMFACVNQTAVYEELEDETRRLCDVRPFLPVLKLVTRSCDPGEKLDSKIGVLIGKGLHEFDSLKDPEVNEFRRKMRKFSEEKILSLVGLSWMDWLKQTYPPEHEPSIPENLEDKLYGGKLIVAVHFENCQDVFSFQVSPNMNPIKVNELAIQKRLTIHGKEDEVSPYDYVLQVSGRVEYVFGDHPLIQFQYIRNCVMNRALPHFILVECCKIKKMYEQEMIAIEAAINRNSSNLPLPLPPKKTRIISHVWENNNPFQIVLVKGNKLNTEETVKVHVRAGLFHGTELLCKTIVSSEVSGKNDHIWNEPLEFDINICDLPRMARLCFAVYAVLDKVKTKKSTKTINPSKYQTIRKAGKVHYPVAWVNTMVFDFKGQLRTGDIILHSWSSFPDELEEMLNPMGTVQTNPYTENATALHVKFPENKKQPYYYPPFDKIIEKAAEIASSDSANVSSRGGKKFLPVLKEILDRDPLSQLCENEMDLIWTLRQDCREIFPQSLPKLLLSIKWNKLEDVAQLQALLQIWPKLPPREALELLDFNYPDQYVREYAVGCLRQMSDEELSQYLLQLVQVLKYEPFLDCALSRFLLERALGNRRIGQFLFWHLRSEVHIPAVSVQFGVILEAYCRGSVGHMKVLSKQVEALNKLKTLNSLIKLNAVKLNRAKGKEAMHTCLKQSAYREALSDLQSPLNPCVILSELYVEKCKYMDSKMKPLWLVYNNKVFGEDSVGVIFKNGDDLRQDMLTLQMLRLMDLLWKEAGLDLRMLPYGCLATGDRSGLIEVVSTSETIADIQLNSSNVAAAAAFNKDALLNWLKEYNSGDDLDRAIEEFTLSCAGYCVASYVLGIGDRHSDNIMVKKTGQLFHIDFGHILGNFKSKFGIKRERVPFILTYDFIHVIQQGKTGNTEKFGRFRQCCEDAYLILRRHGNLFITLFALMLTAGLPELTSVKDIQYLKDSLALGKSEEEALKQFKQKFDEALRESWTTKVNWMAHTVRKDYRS
Sequence of p110β/p85α (P27986 2-724 partner): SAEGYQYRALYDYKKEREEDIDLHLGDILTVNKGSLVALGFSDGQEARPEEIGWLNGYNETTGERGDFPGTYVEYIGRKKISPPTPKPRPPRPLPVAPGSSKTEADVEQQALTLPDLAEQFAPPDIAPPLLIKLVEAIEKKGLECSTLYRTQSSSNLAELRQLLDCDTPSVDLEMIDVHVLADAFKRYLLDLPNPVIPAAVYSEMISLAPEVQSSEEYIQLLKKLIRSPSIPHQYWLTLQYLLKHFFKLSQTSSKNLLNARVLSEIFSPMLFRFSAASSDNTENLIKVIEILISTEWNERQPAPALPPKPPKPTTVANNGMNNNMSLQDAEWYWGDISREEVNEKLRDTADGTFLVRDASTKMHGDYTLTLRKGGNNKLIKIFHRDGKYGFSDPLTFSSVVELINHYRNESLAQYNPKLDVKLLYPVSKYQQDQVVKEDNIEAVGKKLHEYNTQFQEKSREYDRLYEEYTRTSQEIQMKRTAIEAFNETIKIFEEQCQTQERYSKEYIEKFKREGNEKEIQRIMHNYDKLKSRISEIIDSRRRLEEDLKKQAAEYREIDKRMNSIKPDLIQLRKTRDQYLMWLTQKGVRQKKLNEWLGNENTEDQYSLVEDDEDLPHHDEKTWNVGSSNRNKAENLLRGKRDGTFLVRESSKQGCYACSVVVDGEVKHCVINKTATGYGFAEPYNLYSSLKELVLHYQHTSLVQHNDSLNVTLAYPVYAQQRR
Protocol: as §1, §2, §3, §4

Sequence of p110δ/p85α (O00329 whole entry): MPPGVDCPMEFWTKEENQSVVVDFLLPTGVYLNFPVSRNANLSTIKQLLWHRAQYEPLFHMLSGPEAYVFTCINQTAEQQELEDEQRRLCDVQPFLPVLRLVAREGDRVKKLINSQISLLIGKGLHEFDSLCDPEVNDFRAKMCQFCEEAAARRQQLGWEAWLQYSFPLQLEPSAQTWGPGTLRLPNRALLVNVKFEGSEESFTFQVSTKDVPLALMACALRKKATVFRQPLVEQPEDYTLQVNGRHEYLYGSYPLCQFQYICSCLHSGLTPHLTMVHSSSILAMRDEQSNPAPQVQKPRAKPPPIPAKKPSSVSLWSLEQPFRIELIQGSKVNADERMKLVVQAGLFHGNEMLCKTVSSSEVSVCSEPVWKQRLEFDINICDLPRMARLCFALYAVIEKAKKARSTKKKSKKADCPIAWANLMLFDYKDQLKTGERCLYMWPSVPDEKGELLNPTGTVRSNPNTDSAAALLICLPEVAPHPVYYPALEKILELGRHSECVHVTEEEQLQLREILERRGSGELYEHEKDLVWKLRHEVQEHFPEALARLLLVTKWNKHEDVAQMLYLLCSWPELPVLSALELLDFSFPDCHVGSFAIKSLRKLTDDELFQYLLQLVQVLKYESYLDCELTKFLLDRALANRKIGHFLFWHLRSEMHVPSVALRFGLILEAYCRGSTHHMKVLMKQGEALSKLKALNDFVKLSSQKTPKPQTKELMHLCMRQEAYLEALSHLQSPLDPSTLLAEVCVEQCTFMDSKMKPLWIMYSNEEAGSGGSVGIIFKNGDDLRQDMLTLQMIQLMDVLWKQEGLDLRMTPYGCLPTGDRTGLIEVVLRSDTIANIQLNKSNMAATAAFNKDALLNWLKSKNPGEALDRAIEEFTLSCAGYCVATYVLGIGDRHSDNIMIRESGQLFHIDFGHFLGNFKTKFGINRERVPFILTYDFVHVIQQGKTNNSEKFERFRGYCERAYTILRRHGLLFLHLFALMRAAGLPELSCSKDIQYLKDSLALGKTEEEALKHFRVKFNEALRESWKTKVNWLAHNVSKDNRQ
Sequence of p110δ/p85α (P27986 whole entry partner): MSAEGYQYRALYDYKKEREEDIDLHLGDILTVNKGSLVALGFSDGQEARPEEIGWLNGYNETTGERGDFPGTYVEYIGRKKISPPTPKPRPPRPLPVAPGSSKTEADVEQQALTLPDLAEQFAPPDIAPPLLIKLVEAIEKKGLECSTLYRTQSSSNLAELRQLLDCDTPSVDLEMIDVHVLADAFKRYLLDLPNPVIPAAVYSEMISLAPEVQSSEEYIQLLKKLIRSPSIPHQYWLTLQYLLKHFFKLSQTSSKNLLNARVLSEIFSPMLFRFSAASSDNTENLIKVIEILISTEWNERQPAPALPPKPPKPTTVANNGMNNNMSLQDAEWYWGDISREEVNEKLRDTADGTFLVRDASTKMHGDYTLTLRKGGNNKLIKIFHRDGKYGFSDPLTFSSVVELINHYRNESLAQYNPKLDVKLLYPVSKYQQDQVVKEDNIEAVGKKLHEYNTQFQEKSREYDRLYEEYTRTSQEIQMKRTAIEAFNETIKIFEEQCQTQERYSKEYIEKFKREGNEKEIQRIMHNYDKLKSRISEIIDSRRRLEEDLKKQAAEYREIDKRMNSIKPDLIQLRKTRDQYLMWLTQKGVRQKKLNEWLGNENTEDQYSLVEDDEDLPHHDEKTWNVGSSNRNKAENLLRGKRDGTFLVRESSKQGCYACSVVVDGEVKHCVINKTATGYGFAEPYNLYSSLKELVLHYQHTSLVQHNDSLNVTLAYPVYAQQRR

Structure (SMILES)	PI3Kδ IH % @ 1 uM (p110δ/p85α) [%]	IC50 (p110δ/p85α) [nM]	PI3Kγ IH % @ 1 uM (p110γ) [%]	IC50 (p110γ) [nM]	PI3Kβ IH % @ 1 uM (p110β/p85α) [%]	IC50 (p110β/p85α) [nM]
NC(=O)c1c[nH]c2ncnc(N3CCC[C@H]3c3nn4ccc(Cl)c4c(=O)n3-c3ccccc3)c12 [Compound 95]	97.6	1	>100	7	82.0	36
CNC(=O)c1c[nH]c2ncnc(N3CCC[C@H]3c3nn4ccc(Cl)c4c(=O)n3-c3ccccc3)c12 [Compound 96]	97.3	24	94.3	71	73.4	169
CN(C)C(=O)c1c[nH]c2ncnc(N3CCC[C@H]3c3nn4ccc(Cl)c4c(=O)n3-c3ccccc3)c12 [Compound 97]	55.1	–	84.6	144	45.1	–
COc1ncc(-c2c[nH]c3ncnc(N4CC[C@H]4c4nn5ccc(Cl)c5c(=O)n4-c4ccccc4)c23)cn1 [Compound 100]	>100	1	>100	5	89.8	6
COc1ccc(-c2c[nH]c3ncnc(N4CC[C@H]4c4nn5ccc(Cl)c5c(=O)n4-c4ccccc4)c23)cn1 [Compound 102]	>100	1	>100	14	92.3	61
N#Cc1ncc(-c2c[nH]c3ncnc(N4CC[C@H]4c4nn5ccc(Cl)c5c(=O)n4-c4ccccc4)c23)cn1 [Compound 103]	99.7	1	98.2	19	>100	46
Nc1ncc(-c2c[nH]c3ncnc(N4CC[C@H]4c4nn5ccc(Cl)c5c(=O)n4-c4ccccc4)c23)cn1 [Compound 104]	>100	–	>100	3	>100	17
C#Cc1ccn2nc([C@@H]3CCN3c3ncnc4[nH]cc(C#N)c34)n(-c3ccccc3)c(=O)c12 [Compound 105, (S)-4-(2-(5-ethynyl-4-oxo-3-phenyl-3,4-dihydropyrrolo[2,1-f][1,2,4]triazin-2-yl)azetidin-1-yl)-7H-pyrrolo[2,3-d]pyrimidine-5-carbonitrile]	90.0	15	90.4	80	16.0	–
CC(C)Cn1c([C@@H]2CCCN2c2ncnc3[nH]cc(C#N)c23)nn2c(F)ccc2c1=O [Compound 107, (S)-4-(2-(7-fluoro-3-isobutyl-4-oxo-3,4-dihydropyrrolo[2,1-f][1,2,4]triazin-2-yl)pyrrolidin-1-yl)-7H-pyrrolo[2,3-d]pyrimidine-5-carbonitrile]	98.6	5	71.8	153	34.5	–
COc1ccc(-c2c(N)ncnc2N2CC[C@H]2c2nn3ccc(Cl)c3c(=O)n2-c2ccccc2)cn1 [Compound 108, (S)-2-(1-(6-amino-5-(6-methoxypyridin-3-yl)pyrimidin-4-yl)azetidin-2-yl)-5-chloro-3-phenylpyrrolo[2,1-f][1,2,4]triazin-4(3H)-one]	75.9	–	90.0	–	26.9	–
COc1ccc(-c2n[nH]c3ncnc(N4CCC[C@H]4c4nn5ccc(Cl)c5c(=O)n4-c4ccccc4)c23)cn1 [Compound 109]	99.8	4	98.3	192	61.0	–
N#Cc1n[nH]c2ncnc(N3CCC[C@H]3c3nn4ccc(Cl)c4c(=O)n3-c3ccccc3)c12 [Compound 111, (S)-4-(2-(5-chloro-4-oxo-3-phenyl-3,4-dihydropyrrolo[2,1-f][1,2,4]triazin-2-yl)pyrrolidin-1-yl)-1H-pyrazolo[3,4-d]pyrimidine-3-carbonitrile]	93.9	45	67.2	–	39.0	–
O=c1c2c(Cl)ccn2nc([C@@H]2CCN2c2nc(N3CCOCC3)nc3[nH]cnc23)n1-c1ccccc1 [Compound 114, (S)-5-chloro-2-(1-(2-morpholino-9H-purin-6-yl)azetidin-2-yl)-3-phenylpyrrolo[2,1-f][1,2,4]triazin-4(3H)-one]	93.7	27	4.3	–	86.4	159
CC(Nc1ncnc2[nH]cnc12)c1cc2ncc(Cl)n2c(=O)n1-c1ccccc1 (centres unmarked) [Compound 115, 7-(1-(9H-purin-6-ylamino)ethyl)-3-chloro-6-phenylimidazo[1,2-c]pyrimidin-5(6H)-one]	>100	2	91.7	3	80.2	143
CC(Nc1ncnc2[nH]cc(C#N)c12)c1cc2ncc(Cl)n2c(=O)n1-c1ccccc1 (centres unmarked) [Compound 116]	>100	5	96.9	45	>100	128
CC(Nc1ncnc(N)c1C#N)c1cc2ncc(Cl)n2c(=O)n1-c1ccccc1 (centres unmarked) [Compound 117]	>100	5	>100	43	>100	38
CC(Nc1ncnc2[nH]cc(C#N)c12)c1cc2ncc(Cl)n2c(=O)n1-c1cccc(F)c1 (centres unmarked) [Compound 118]	77.5	471	5.2	–	19.1	–
CC(Nc1ncnc2[nH]cnc12)c1cc2cccn2c(=O)n1-c1ccccc1 (centres unmarked) [Compound 119, 3-(1-(9H-purin-6-ylamino)ethyl)-2-phenylpyrrolo[1,2-c]pyrimidin-1(2H)-one]	94.3	–	85.6	239	47.8	–
CC(Nc1ncnc(N)c1C#N)c1cc2cccn2c(=O)n1-c1ccccc1 (centres unmarked) [Compound 120]	>100	–	85.9	295	74.7	237
CC(Nc1ncnc2[nH]cnc12)c1cc2ccc(Cl)n2c(=O)n1-c1ccccc1 (centres unmarked) [Compound 122, 3-(1-(9H-purin-6-ylamino)ethyl)-7-chloro-2-phenylpyrrolo[1,2-c]pyrimidin-1(2H)-one]	>100	3	>100	8	88.3	51
CC(Nc1ncnc2[nH]cc(C#N)c12)c1cc2ccc(Cl)n2c(=O)n1-c1ccccc1 (centres unmarked) [Compound 124]	98.0	2	>100	12	95.0	22
CC(Nc1ncnc(N)c1C#N)c1cc2ccc(Cl)n2c(=O)n1-c1ccccc1 (centres unmarked) [Compound 125]	>100	1	94.0	3	95.7	6
CC(Nc1ncnc(N)c1C#N)c1cc2c(Cl)cc(Cl)n2c(=O)n1-c1ccccc1 (centres unmarked) [Compound 126]	>100	1	>100	20	90.9	25
CC(Nc1ncnc2[nH]cc(C#N)c12)c1cc2c(Cl)cc(Cl)n2c(=O)n1-c1cccc(F)c1 (centres unmarked) [Compound 129]	97.8	18	33.3	–	17.8	–
O=c1c2c(F)ccn2nc([C@@H]2C[C@H](F)CN2c2ncnc3[nH]cnc23)n1-c1ccccc1 [Compound 132, 5-fluoro-2-((2S,4S)-4-fluoro-1-(9H-purin-6-yl)pyrrolidin-2-yl)-3-phenylpyrrolo[2,1-f][1,2,4]triazin-4(3H)-one]	>100	9	>100	70	74.5	338
